By EC50 is commonly meant the concentration needed to bring the measured effect to its halfway point.

Read-outs that look alike come from different tables or passages of the source. Bounds are passed on as bounds.

The subject of this experiment is recombinant human CFTR carrying the premature stop codon (PTC) mutation R1162X. Nature of the experiment: CFTR-PTC mutant translation readthrough, Nanoluc tagged CFTR luminescence (R1162X cell line). The following applies: for CFTR R1162X ACTIVITY Fold 10 μM G-418: fold over 10 μM G-418, in combination with G418. Format: cell-based. As to the method: 16HBE human bronchial epithelial cells (stably over-expressing recombinant human CFTR carrying the premature stop codon (PTC) mutation G542X or R1162X along with a Nanoluc tag incorporated into the CFTR channel within extracellular loop 4 in G542X cell line or C-terminus end in the R1162X cell line were seeded at 0.01×10^6 cells/well and grown in Minimal Essential Medium (MEM) as monolayers in 384 well plates and incubated at 37° C. with 5% CO2. Media was changed every other day until day of experiment. Agents to be evaluated were made up in separate 384 well, polypropylene plates at a 2X the final desired test concentration. Test agent 10-point concentration response curves were constructed using the Labcyte Echo 555 acoustic dispenser. Test agents were typically tested at a max final test concentrations of 50 μM with sequential 2-fold lower concentrations below this in the absence or presence of a fixed 10 μM concentration of the aminoglycoside G418 made up in MEM growth media (reduced Serum Media+HEPES Buffer+2.4 g/L Sodium Bicarbonate+L-Glutamine containing CFTR corrector VX-809 (3 μM)). Treatment with 10 μM G418 alone produced approximately 10% of the response observed with a maximally effective concentration of G418 (typically 125-250 μM). Test agent effects in presence of 10 μM G418 were compared to control wells on the plate containing a maximally effective concentration of G418 (typically 125-250 μM) made up in the same media. 25 ul of test agents/control solutions were transferred from the compound plate to the cell plate, which already contained 25 ul/well of cell plating media, using an Integra Viaflo 384. Cell plates were incubated with the compounds for 48 hours, at which time they were processed using Nanoluc luminescence Kit (Promega Nano-Glo Live Cell Assay System) to measure CFTR-PTC mutant translation readthrough. Luminescence was measured as follows. Cell plates were removed from the incubator and allowed to equilibrate to room temperature for 20 minutes. Media was removed from all wells and the plates were blotted to remove excess remaining volume. Nano-Glo Live Cell Substrate was diluted 1:20 in the appropriate amount of Nano-Glo LCS Dilution Buffer to accommodate the number of cell plates being tested. The substrate/dilution buffer mix was then diluted 1:3 with MEM media to make the appropriate volume for the number of plates being tested. The substrate/dilution buffer/OptiMEM mix was added across the Nanoluc testing cell plates and the plates were read for luminescence signal immediately. Test agent effects on CFTR translation readthrough was determined by normalizing any observed increase in luminescence induced by 48 hours pretreatment with test compound to the magnitude of luminescence increase produced by pretreatment with a maximally effective concentration of the reference readthrough enhancing agent G418 (125-250 μM).

Setting [1] is: in combination with G418, 16HBE cells, read-out: CFTR R1162X ACTIVITY EC50.
Setting [2] is: read-out: CFTR R1162X ACTIVITY EC50, in combination with G418, 16HBE cells.

For `OCc1cn(-c2ncc(OCc3c(Cl)ccc(F)c3Cl)cn2)nn1`, the “CFTR R1162X ACTIVITY Fold 10 μM G-418” value was “C′ (C′ = <5X)”. Also, the EC50 under setting [1] lay within 1000 to 10000 nM.

For the molecule `OCc1ncn(-c2ccc(OCc3c(Cl)cccc3Cl)cn2)n1` [Example 337, (1-{5-[(2,6-dichlorophenyl)methoxy]pyridin-2-yl}-1,2,4-triazol-3-yl) methanol], the “CFTR R1162X ACTIVITY Fold 10 μM G-418” value is listed as “C′ (C′ = <5X)”. The EC50 under setting [1] was under 1000 nM.

As for `OCc1cn(-c2ncc(OCc3c(C(F)(F)F)ccc(F)c3Cl)cn2)cn1`, the “CFTR R1162X ACTIVITY Fold 10 μM G-418” value is “C′ (C′ = <5X)”. Further, the EC50 under setting [1] was under 1000 nM.

For `Cc1cccc(C(F)(F)F)c1COc1cnc(-n2ccc(C(N)=O)n2)nc1`, the “CFTR R1162X ACTIVITY Fold 10 μM G-418” value is reported as “C′ (C′ = <5X)”. Moreover, the EC50 under setting [1] is under 1000 nM.

Turning to `O=C1CN(c2ccc(OCc3c(Cl)cc(F)cc3Cl)cn2)C(=O)N1` [Compound 349, 1-{5-[(2,6-dichloro-4-fluorophenyl)methoxy]pyridin-2-yl}imidazolidine-2,4-dione], the “CFTR R1162X ACTIVITY Fold 10 μM G-418” value is reported as “C′ (C′ = <5X)”. In addition, under setting [1], the EC50 was in the range of 1000 to 10000 nM.

On to `OCc1cn(-c2ncc(OCc3c(C(F)(F)F)cccc3C(F)(F)F)cn2)cn1`, for which the “CFTR R1162X ACTIVITY Fold 10 μM G-418” value is “A′ (A′ = ≥10X)”. In addition, the EC50 under setting [1] is under 1000 nM.

As for `O=C1CN(c2ncc(OCc3c(Cl)cccc3C(F)(F)F)cn2)C1` [Compound 355, 1-(5-{[2-chloro-6-(trifluoromethyl)phenyl]methoxy}pyrimidin-2-yl)azetidin-3-one], the “CFTR R1162X ACTIVITY Fold 10 μM G-418” value is “A′ (A′ = ≥10X)”. For the same molecule, the EC50 under setting [1] was under 1000 nM.

For `OCc1ccn(-c2ncc(OCc3c(Cl)cccc3C(F)(F)F)cn2)n1`, the “CFTR R1162X ACTIVITY Fold 10 μM G-418” value is reported as “C′ (C′ = <5X)”. Besides, under setting [1], the EC50 was under 1000 nM.

Take `OCc1ccn(-c2cnc(OCc3c(Cl)cccc3Cl)cn2)n1` [Example 339, (1-{5-[(2,6-dichlorophenyl)methoxy]pyrazin-2-yl}pyrazol-3-yl) methanol]: the “CFTR R1162X ACTIVITY Fold 10 μM G-418” value is “C′ (C′ = <5X)”. Moreover, the EC50 under setting [2] fell in the range of 1000 to 10000 nM.

Consider `OCc1ncn(-c2ncc(CCc3c(Cl)cccc3Cl)cn2)n1`, for which the “CFTR R1162X ACTIVITY Fold 10 μM G-418” value is listed as “C′ (C′ = <5X)”. For the same molecule, the EC50 under setting [1] lay within 1000 to 10000 nM.

Consider `O=C1OC(CO)CN1c1ncc(OCc2c(Cl)ccc(F)c2Cl)cn1` (stereo not drawn), for which the “CFTR R1162X ACTIVITY Fold 10 μM G-418” value is reported as “C′ (C′ = <5X)”. Besides, under setting [1], the EC50 was 1000 to 10000 nM.

With `OCc1cnn(-c2ncc(OCc3c(Cl)ccc(F)c3Cl)cn2)n1`, the “CFTR R1162X ACTIVITY Fold 10 μM G-418” value was “C′ (C′ = <5X)”. The EC50 under setting [1] was under 1000 nM.

On to `O=C1CN(c2ccc(OCc3c(Cl)cccc3Cl)nn2)C(=O)N1` [Compound 351, 1-{6-[(2,6-dichlorophenyl)methoxy]pyridazin-3-yl}imidazolidine-2,4-dione], for which the “CFTR R1162X ACTIVITY Fold 10 μM G-418” value is recorded as “C′ (C′ = <5X)”. Moreover, under setting [1], the EC50 fell in the range of 1000 to 10000 nM.

`FC(F)(F)c1cccc(Cl)c1COc1cnc(N2CCn3c(nnc3C(F)(F)F)C2)nc1`: the “CFTR R1162X ACTIVITY Fold 10 μM G-418” value was “C′ (C′ = <5X)”. Further, under setting [1], the EC50 was 1000 to 10000 nM.

On to `OCc1cncn1-c1ncc(OCc2c(Cl)cccc2Cl)cn1` [Example 362, (3-{5-[(2,6-dichlorophenyl)methoxy]pyrimidin-2-yl}imidazol-4-yl) methanol], for which the “CFTR R1162X ACTIVITY Fold 10 μM G-418” value is listed as “A′ (A′ = ≥10X)”. Also, the EC50 under setting [2] is 1000 to 10000 nM.

In the case of `CC(=O)N1CCN(c2ncc(OCc3c(Cl)cccc3C(F)(F)F)cn2)C[C@@H]1CN`, the “CFTR R1162X ACTIVITY Fold 10 μM G-418” value was “B′ (B′ = ≥5X to <10X)”. In addition, the EC50 under setting [1] lay in the range of 1000 to 10000 nM.

As to `Cc1cccc(C(F)(F)F)c1COc1cnc(N2C[C@@H](CO)NC2=O)nc1` [(4S)-4-(hydroxymethyl)-1-(5-{[2-methyl-6-(trifluoromethyl)phenyl]methoxy}pyrimidin-2-yl)imidazolidin-2-one], the “CFTR R1162X ACTIVITY Fold 10 μM G-418” value was “C′ (C′ = <5X)”. In addition, the 50% effective concentration (EC50) under setting [1] was in the range of 1000 to 10000 nM.

For the molecule `OCc1ccn(-c2ncc(OCc3c(C(F)(F)F)cccc3C(F)(F)F)cn2)n1`, the “CFTR R1162X ACTIVITY Fold 10 μM G-418” value is reported as “A′ (A′ = ≥10X)”. Moreover, the EC50 under setting [1] is under 1000 nM.

The values are drawn from US20250228865A1, “COMPOUNDS FOR ENHANCING READ THROUGH OF GENES CONTAINING PREMATURE TERMINATION CODONS AND METHODS FOR MAKING AND USING THE SAME” (Sanofi US Services Inc., priority 2022, published 2025).
